# Source: ChEMBL document CHEMBL6121046, “Discovery of Novel Hydrazide-Based HDAC3 Inhibitors as Epigenetic Immunomodulators for Cancer Immunotherapy” (J Med Chem, 2025)
# Activity calls are given as the source filed them. The calls are words filed in the database; no cut-off is given here.
# Legend:
# MC-38 [1] = assay: In vivo antitumor activity against mouse MC38 cells allografted in C57BL/6 mouse assessed as tumor growth inhibition at 50 mg/kg, po treated 5 days after cell inoculation 19 th day relative to control; assay type: functional; conditions: MC-38, 360 h, time 15 day, read-out: TGI
# [2] = Oral bioavailability in C57BL/6 mouse allografted with mouse MC38 cells at 50 mg/kg; assay type: ADME, organism-based; conditions: in vivo
# Mus musculus [3] = assay: (§1) Immunomodulatory effect in C57BL/6 mouse allografted mouse MC38 cells assessed as increase in tumor infiltrating lymphocytes by measuring increase in CD4+ T helper cells in mouse blood at 50 mg/kg, po treated 5 days after cell inoculation 19 th day by flow cytometry analysis (reference value: 0.27%); assay type: functional; conditions: time 15 day
# Mus musculus [4] = assay: (§2) Immunomodulatory effect in C57BL/6 mouse allografted mouse MC38 cells assessed as increase in tumor infiltrating lymphocytes by measuring increase in […] in mouse blood at 50 mg/kg, po treated 5 days after cell inoculation 19 th day by flow cytometry analysis (reference value: 0.35%); assay type: functional; conditions: time 15 day
# Mus musculus [5] = assay: as §1, with “lymph nodes” for “blood”, “15.5%)” for “0.27%)”; assay type: functional; conditions: time 15 day
# Mus musculus [6] = assay: as §2, with “lymph nodes” for “blood”, “20.3%)” for “0.35%)”; assay type: functional; conditions: time 15 day
# Mus musculus [7] = assay: as §1, with “spleen” for “blood”, “10.8%)” for “0.27%)”; assay type: functional; conditions: time 15 day
# Mus musculus [8] = assay: as §2, with “spleen” for “blood”, “13.6%)” for “0.35%)”; assay type: functional; conditions: time 15 day
# Mus musculus [9] = assay: Immunomodulatory effect in C57BL/6 mouse allografted mouse MC38 cells assessed as increase in tumor infiltrating lymphocytes by measuring increase in CD4+ T helper cells in tumor at 50 mg/kg, po treated 5 days after cell inoculation 19 th day by flow cytometry analysis (reference value: 2.57%); assay type: functional; conditions: time 15 day
# Mus musculus [10] = assay: Immunomodulatory effect in C57BL/6 mouse allografted mouse MC38 cells assessed as increase in tumor infiltrating lymphocytes by measuring increase in CD8+ T […] cells in tumor at 50 mg/kg, po treated 5 days after cell inoculation 19 th day by flow cytometry analysis (reference value: 2.32%); assay type: functional; conditions: time 15 day
# Mus musculus [11] = assay: Immunomodulatory effect in C57BL/6 mouse allografted with mouse MC38 cells assessed as increase in tumor infiltrating lymphocytes by measuring increase in CD3+ CD4+ cells at 50 mg/kg, po treated 5 days after cell inoculation 19 th day by flow cytometry analysis; assay type: functional, organism-based; conditions: time 15.0 day
# MC-38 [12] = assay: In vivo antitumor activity against mouse MC38 cells allografted in C57BL/6 mouse assessed as decrease in […] positive cells in tumor at 50 mg/kg, po treated 5 days after cell inoculation 19 th day by immunofluorescence analysis; assay type: functional, organism-based; conditions: time 15.0 day
# MC-38 [13] = assay: In vivo antitumor activity against mouse MC38 cells allografted in C57BL/6 mouse assessed as increase in Tunel-positive cells in tumor at 50 mg/kg, po treated 5 days after cell inoculation 19 th day by immunofluorescence analysis; assay type: functional, organism-based; conditions: time 15.0 day
# Mus musculus [14] = assay: Induction of PD-L1 expression in tumor in C57BL/6 mouse allografted with mouse MC38 cells in presence of NP19 PD-L1 inhibitor at 50 mg/kg, po treated 5 days after cell inoculation 19 th day by immunofluorescence analysis; assay type: functional, organism-based; conditions: time 15.0 day
smiles,measurement,setting,value
Cc1c(COc2cc(OCc3cccc(C#N)c3)c(CNC(C)(C)C(=O)O)cc2Cl)cccc1-c1ccccc1,inhibition in vivo at 50 mg/kg,MC-38 [1],8%
same,bioavailability,[2],< 5%
same,Activity,Mus musculus [3],0.38%
same,Activity,Mus musculus [4],0.42%
same,Activity,Mus musculus [5],11.2%
same,Activity,Mus musculus [6],18.9%
same,Activity,Mus musculus [7],10.2%
same,Activity,Mus musculus [8],12.1%
same,Activity,Mus musculus [9],2.69%
same,Activity,Mus musculus [10],3.18%
same,Activity,Mus musculus [11],inactive
same,Activity,MC-38 [12],inactive
same,Activity,MC-38 [13],Active
same,Activity,Mus musculus [14],inactive
